Data on 18 compounds can be found in ChEMBL document CHEMBL1130462, “New enone derivatives of oleanolic acid and ursolic acid as inhibitors of nitric oxide production in mouse macrophages” (Bioorg Med Chem Lett, 1997).

Structures are written as SMILES.

For one assay, the species on record is Mus musculus. The assay is described as follows: Compound was measured for its inhibitory activity on IFN-gamma-induced nitric oxide production in mouse macrophage. The format is functional.
Turning to `C[C@]12CCC(=O)C=C1CCC1[C@@H]2[C@@H](O)C[C@@]2(C)[C@H]1CC[C@]2(O)C(=O)CO` (single isomer, unassigned) [HYDROCORTISONE], the IC50 (as a rule, the concentration at which inhibition is half-maximal) was found to be 0.015 µM.

The species entered for another assay is Mus musculus. Nature of the assay: Inhibitory activity on IFN-gamma-induced nitric oxide production in mouse macrophage at a concentration of 0.1-40 uM. In kind it is functional.
`CC1(C)CC[C@]2(C(=O)O)CC[C@]3(C)[C@H](C(=O)C=C4[C@@]5(C)C=CC(=O)C(C)(C)[C@@H]5CC[C@]43C)[C@@H]2C1` displayed an IC50 of 0.9 µM.

Regarding `CC1(C)CC[C@]2(C(=O)O)CC[C@]3(C)C(=C2C1)C=C[C@@H]1[C@@]2(C)C=CC(=O)C(C)(C)[C@@H]2CC[C@]13C`, the midpoint of inhibition, the IC50, lay at 9.7 µM.

For `CC1(C)CC[C@]2(C(=O)O)CC[C@]3(C)C(C(=O)C[C@@H]4[C@@]5(C)C=CC(=O)C(C)(C)[C@@H]5CC[C@]43C)C2C1` (stereo partly drawn), half-maximal inhibition (IC50) was put at 3.3 µM.

With `CC1(C)CC[C@]2(C(=O)O)CC[C@]3(C)C(CC=C4[C@@]5(C)C=CC(=O)C(C)(C)[C@@H]5CC[C@]43C)C2C1` (stereo partly drawn), 5.2 µM corresponded to half-maximal inhibition (IC50). Compared with the last compound, the IC50 is about 1.6-fold higher.

`CC1(C)CC[C@]2(C(=O)O)CC[C@]3(C)C(=CC[C@@H]4[C@@]5(C)C=C(O)C(=O)C(C)(C)[C@@H]5CC[C@]43C)C2C1` (stereo partly drawn): the IC50 came to 26.5 µM.

`CC1(C)CC[C@]2(C(=O)O)CC[C@]3(C)C(CC4OC45[C@@]4(C)C=CC(=O)C(C)(C)[C@@H]4CC[C@]53C)C2C1` (stereo partly drawn) registered a 50% inhibitory concentration (IC50) of 35.5 µM.

Turning to `CC1(C)CC[C@]2(C(=O)O)CC[C@]3(C)C(=CC(=O)[C@@H]4[C@@]5(C)C=CC(=O)C(C)(C)[C@@H]5CC[C@]43C)C2C1` (stereo partly drawn), the IC50 was 1.8 µM.

Compound `C[C@@H]1CC[C@]2(C(=O)O)CC[C@]3(C)C(=CC[C@@H]4[C@@]5(C)C=CC(=O)C(C)(C)[C@@H]5CC[C@]43C)C2[C@H]1C` (stereo partly drawn) registered a concentration for half-maximal inhibition (IC50) of 17.6 µM. Against the preceding compound, the IC50 is about 9.8-fold higher.

Regarding `CC1(C)CC[C@]2(C(=O)O)CC[C@]3(C)C(=CC[C@@H]4[C@@]5(C)C=CC(=O)C(C)(C)[C@@H]5CC[C@]43C)C2C1` (stereo partly drawn), the half-inhibitory concentration (IC50) came to 6 µM. This IC50 is about 2.9-fold lower than that of the compound before.

In turn, `CC1(C)CC[C@]2(C(=O)O)CC[C@]3(C)C(=C2C1)CC(=O)[C@@H]1[C@@]2(C)C=CC(=O)C(C)(C)[C@@H]2CC[C@]13C` yielded a concentration for half-maximal inhibition (IC50) of 2.6 µM.

In the case of `COC1=C[C@]2(C)[C@H]3CC=C4C5CC(C)(C)CC[C@]5(C(=O)O)CC[C@@]4(C)[C@]3(C)CC[C@H]2C(C)(C)C1=O` (stereo partly drawn), the IC50 was 30 µM.

Consider `C[C@@H]1CC[C@]2(C(=O)O)CC[C@]3(C)C(=CC(=O)[C@@H]4[C@@]5(C)C=CC(=O)C(C)(C)[C@@H]5CC[C@]43C)C2[C@H]1C` (stereo partly drawn), for which half-maximal inhibition (IC50) was put at 5.1 µM.

`COC(=O)[C@]12CCC(C)(C)CC1C1=CC[C@@H]3[C@@]4(C)C=CC(=O)C(C)(C)[C@@H]4CC[C@@]3(C)[C@]1(C)CC2` (stereo partly drawn) yielded an IC50 of 40 µM.

Compound `CC1(C)CC[C@]2(C(=O)O)CC[C@]3(C)C(CC[C@@H]4[C@@]5(C)C=CC(=O)C(C)(C)[C@@H]5CC[C@]43C)C2C1` (stereo partly drawn) returned an IC50 of 8.5 µM.

`CC1(C)CC[C@]2(C(=O)O)CC[C@]3(C)C(=CC[C@@H]4[C@@]5(C)CC[C@H](O)C(C)(C)[C@@H]5CC[C@]43C)[C@@H]2C1` [OLEANOLIC_ACID] gave an IC50 of 40 µM. This IC50 lies about 4.7-fold higher than the previous one.

Consider `CC1(C)CC[C@]2(C(=O)O)CC[C@]3(C)C(=CC[C@@H]4[C@@]5(C)CCC(=O)C(C)(C)[C@@H]5CC[C@]43C)[C@@H]2C1` [OLEANONIC ACID], for which inhibition was half-maximal at 37.1 µM (IC50).

For a further assay, the species on record is Mus musculus. The assay is described as follows: Compound was measured for its inhibitory activity on IFN-gamma-induced nitric oxide production in mouse macrophage; toxic at 5-10 uM. In kind it is functional.
For the compound `C[C@@H]1CC[C@]2(C(=O)O)CC[C@]3(C)C(=CC[C@@H]4[C@@]5(C)CC[C@H](O)C(C)(C)[C@@H]5CC[C@]43C)C2[C@H]1C` (stereo partly drawn), the concentration for half-maximal inhibition (IC50) entry is recorded as “toxic at 5-10 uM”.
